Like-named read-outs stand apart in the source and are kept apart here.
Columns and labels:
[1] = test system: activated human T cells (proliferation); experiment: cells; format: cell-based; conditions: for effect of the substance on T cell proliferation: activated human T cells; for restoration of adenosine-mediated inhibition of T cell proliferation: uridine, cytidine all 30 µM; for EC50: Homo sapiens, T-cell
[2] = test system: NLVPMVATV peptide-pulsed T2 cells; experiment: Antigen-specific cell killing assay; format: cell-based, human
[3] = test system: PD-1^+TIM-3^+CD39^+ CD8^+ TILs from NSCLC; format: cell-based, human; conditions: ex vivo stimulated PD-1^+TIM-3^+CD39^+ CD8^+ T cells, adenosine 100 µM, EOS301984 300 nM
[4] = test system: mitochondrial respiration of activated human T cells; format: cell-based
[5] = test system: activated human T cells (viability); format: cell-based; conditions: for effect of the substance on T cell viability: activated human T cells
[6] = test system: IFNγ production by activated human T cells; format: cell-based
[7] = test system: pyrimidine and purine metabolites in activated human T cells; format: cell-based; conditions: 24 h; for levels of UMP, UDP, UTP and CTP (metabolites downstream of UMPS) / levels of carbamoyl aspartate, DHO and orotate: adenosine-exposed activated human T cells
[8] = test system: TNF production by activated human T cells; format: cell-based
activated human T cells = experiment: [3H]adenosine uptake assay; format: cell-based; conditions: dilazep 1 µM, one value per donor
[9] = test system: NLVPMVATV-specific CD8^+ T cells in PBMCs; experiment: CMV pp65 antigen recall assay, tetramer staining; format: cell-based, human; conditions: in the presence of ATP (300 µM); EOS301984 300 nM, anti-PD-1 10 µg ml^-1; representative donor
[10] = in the presence of 100 µM adenosine, 72 h activation

Nc1ccn([C@@H]2O[C@H](CO)[C@@H](O)[C@H]2O)c(=O)n1 [cytidine]
effect of the substance on T cell proliferation [1]: did not suppress
restoration of adenosine-mediated inhibition of T cell proliferation [1]: not observed

Anti-PD-1: anti-PD-1 antibody OPDIVO (nivolumab), Bristol-Myers Squibb [reference compound]
antigen-specific killing by the PBMC population ([2]; in the absence of ATP): did not have a clear effect

Nc1ncnc2c1ncn2[C@@H]1O[C@H](CO)[C@@H](O)[C@H]1O [Adenosine, adenosine]
fraction of cells producing IFNγ and granzyme B [3]: suppressed
mitochondrial respiration (OCR) [4]: reduced
effect of the substance on T cell viability [5]: loss of viability
effect of the substance on IFNγ production ([6]; activated human T cells): inhibited
levels of UMP, UDP, UTP and CTP (metabolites downstream of UMPS) [7]: dose-dependently depleted
levels of carbamoyl aspartate, DHO and orotate [7]: increase
levels of adenosine metabolites (purines) ([7]; adenosine-treated versus DMSO-treated T cells): Dose-dependent increases
effect of the substance on TNF production [8]: inhibited
effect of the substance on T cell proliferation [1]: inhibited

COc1cc(C(=O)OCCCN2CCCN(CCCOC(=O)c3cc(OC)c(OC)c(OC)c3)CC2)cc(OC)c1OC [Dilazep, dilazep, reference compound]
restoration of T cell viability [5, 10]: restored
IFNγ production ([6]; in the presence of 100 µM adenosine): restored
[3H]adenosine uptake (activated human T cells): reduced
levels of UMP, UDP, UTP and CTP (metabolites downstream of UMPS) [7]: increased
levels of carbamoyl aspartate, DHO and orotate [7]: reduced
restoration of T cell proliferation [1, 10]: restored

O=c1ccn([C@@H]2O[C@H](CO)[C@@H](O)[C@H]2O)c(=O)[nH]1 [Uridine, uridine]
levels of UMP, UDP, UTP and CTP (metabolites downstream of UMPS) [7]: normalized pyrimidine levels
EC50 ([1]; read-out: EC50, rescue of T cell proliferation): 1100 nM
effect of the substance on T cell proliferation [1]: did not suppress
restoration of adenosine-mediated inhibition of T cell proliferation [1]: restored

Nc1ncnc2nc(-c3ccc(N4CCOCC4)nc3)cc(-c3cccc(Br)c3)c12 [ABT-702, 4-amino-5-(3-bromophenyl)-7-(6-morpholino-pyridin-3-yl)pyrido[2,3-d]pyrimidine, reference compound]
levels of UMP, UDP, UTP and CTP (metabolites downstream of UMPS) [7]: restored pyrimidine metabolism
EC50 ([1]; read-out: EC50, rescue of activated CD8^+ T cell proliferation): 23.8 nM

Nc1ncnc2c1ncn2[C@@H]1O[C@H](COP(=O)(O)OP(=O)(O)OP(=O)(O)O)[C@@H](O)[C@H]1O [ATP]
antigen-specific killing by the PBMC population ([2]; ATP present during the expansion phase): reduced
effect of the substance on T cell viability [5]: suppressed
effect of the substance on TNF production [8]: suppressed
effect of the substance on T cell proliferation [1]: suppressed
Tet^+ of CD8^+ T cells [9]: profound suppression

From paper PMC12133574 (Nature Immunology, 2025)
